Source: patent US20230104487A1, “11-(4-CHLOROPHENYL)-4-(2,3-DIHYDRO-1H-INDOLE-1-CARBONYL)-3,11-DIMETHYL-5,10,DIOXATRICYCLO[7.4.0.0,2,6,]TRIDECA-1,3,6,8-TETRAEN-13-ONE AND DERIVATIVES AS DESTABILIZER OF CRY1 FOR THE TREATMENT OF CIRCADIAN RHYTHM ASSOCIATED DISEASES AND DISORDERS” (KOC UNIVERSITESI, priority 2019, published 2023)

System: BMAL1
Test: BMAL1 mRNA and protein, synchronized U2-OS cells
Type: cell-based, human
Conditions: 10 μM
Description: Cells were lysed in RIPA buffer (50 mM Tris, 150 mM NaCl, 1% Triton-X, 0.1% SDS) with fresh Protease inhibitor cocktail (PIC). After centrifugation at 13000 rpm for 15 minutes at 4° C., supernatant was used to determine the protein amount using Pierce Protein Assay (Thermo Scientific) according to the manufacturer's instruction. Mice liver samples were homogenized and lysed with Dounce homogenizer and RIPA buffer. After homogenization samples were incubated 10 minutes on ice. After centrifugation 13000 rpm 15 minutes at 4° C. supernatant was used for the whole cell lysate. Subcellular fractionation of liver samples: Liver samples were homogenized with cytosolic lysis buffer (10 mM HEPES pH 7.9, 10 mM KCl, 0.1 mM EDTA, 0.05% NP40, proteasome inhibitor) by pipetting 40 times with a cut tip. Then samples were incubated 10 minutes on ice and centrifuged for 3 minutes at 3000 rpm at 4° C. Supernatant was saved in a new tube, and pellet was processed for the nuclear fraction. […] ECL buffer system (Advansta WesternBright) was used to visualize HRP chemi-luminescence via BioRad ChemiDoc Touch visualizer.
QIAGEN RNeasy Mini Kit was used to isolate the mRNA. […] Quantity of RNA was determined by Nanodrop 2000 (Thermo Scientific). […] For quantitative real time PCR (qRT-PCR) analysis cDNAs were further diluted 5-fold (1:5). mRNA expression levels were calculated by qRT-PCR with the SYBR Green. […]

With Cc1c(C(=O)N2CCc3ccccc32)oc2ccc3c(c12)C(=O)CC(C)(c1ccc(Cl)cc1)O3 (stereo not shown) [FORMULA I, 11-(4-chlorophenyl)-4-(2,3-dihydro-1H-indole-1-carbonyl)-3,11-dimethyl-5,10,dioxatricyclo[7.4.0.0,2,6,]trideca-1,3,6,8-tetraen-13-one] the “mRNA and protein levels of BMAL1” value was “Decreased mRNA and protein levels of BMAL1”.
